For experiment [1], the target named is human JAK1 (a.a. 837-1142) (Homo sapiens, UniProt P23458). Nature of the experiment: In vitro JAK kinase assay (HTRF, phosphorylation of biotinylated peptide), JAK1. The class given is biochemical. As to conditions: Table F; 1 mM ATP. The essentials: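 Phosphorylation of a biotinylated peptide was run at room temperature for 1 hour using the N-terminally His-tagged JAK1 kinase domain (837-1142) from insect cells. After an EDTA stop, Eu-Py20 and SA-APC gave an HTRF read; values are binned potency ranges.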
Sequence of human JAK1 (a.a. 837-1142) (P23458 849-1154): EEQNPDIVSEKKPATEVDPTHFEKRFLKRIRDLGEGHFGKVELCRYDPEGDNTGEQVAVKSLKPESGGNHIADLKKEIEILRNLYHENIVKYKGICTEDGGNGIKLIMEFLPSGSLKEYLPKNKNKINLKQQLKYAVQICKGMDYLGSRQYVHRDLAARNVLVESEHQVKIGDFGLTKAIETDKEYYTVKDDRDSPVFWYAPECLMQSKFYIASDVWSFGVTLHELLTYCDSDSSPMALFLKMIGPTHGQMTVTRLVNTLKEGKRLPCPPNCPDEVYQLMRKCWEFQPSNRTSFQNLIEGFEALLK

The target in another experiment is T1, JAK2 (a.a. 828-1132) (Homo sapiens, UniProt O60674).
T1 construct: JAK2 (a.a. 828-1132); His tag (N)
T1 sequence (O60674 828-1132): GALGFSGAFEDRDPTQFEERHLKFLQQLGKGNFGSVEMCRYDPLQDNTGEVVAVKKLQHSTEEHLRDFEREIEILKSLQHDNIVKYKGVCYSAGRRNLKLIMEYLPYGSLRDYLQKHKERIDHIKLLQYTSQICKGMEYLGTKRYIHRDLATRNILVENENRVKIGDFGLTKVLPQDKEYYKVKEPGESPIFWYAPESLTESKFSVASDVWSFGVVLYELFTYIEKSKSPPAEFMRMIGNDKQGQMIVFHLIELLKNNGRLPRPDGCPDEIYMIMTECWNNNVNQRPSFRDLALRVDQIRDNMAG
As to the kind of experiment: In vitro JAK kinase assay (HTRF, phosphorylation of biotinylated peptide), JAK2. In kind it is biochemical. To be noted: Table F; 1 mM ATP. The essentials: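 HTRF detection (Eu-Py20, SA-APC, 40 min) of biotinylated-peptide phosphorylation, following a 1 hour room-temperature reaction quenched with 45 mM EDTA. Enzymes: insect-cell-expressed N-terminal His-tagged JAK1 (837-1142) and JAK2 (828-1132) catalytic domains. Activities reported in ranged categories.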

These results are taken from US10640506B2, “Cyclobutyl substituted pyrrolopyridine and pyrrolopyrimidines derivatives as JAK inhibitors” (Incyte Corporation, priority 2010, dated 2020).

Counter-ions that a name gives are not always drawn.

`COCc1cc(C(=O)N2CCN([C@H]3C[C@](CC#N)(n4cc(-c5ncnc6[nH]ccc56)cn4)C3)CC2)nc(C(F)(F)F)c1` [Example 76, {trans-3-(4-{[4-(methoxymethyl)-6-(trifluoromethyl)pyridin-2-yl]carbonyl}piperazin-1-yl)-1-[4-(7H-pyrrolo[2,3-d]pyrimidin-4-yl)-1H-pyrazol-1-yl]cyclobutyl}acetonitrile]: the IC50 in experiment [1] was less than 10 nM; against JAK2 (a.a. 828-1132), 10 to 25 nM.

On to `CC(C)(O)c1cc(C(=O)N2CCN([C@H]3C[C@](CC#N)(n4cc(-c5ccnc6[nH]ccc56)cn4)C3)CC2)nc(C(F)(F)F)n1` [Example 78, {trans-3-(4-{[6-(1-hydroxy-1-methylethyl)-2-(trifluoromethyl)pyrimidin-4-yl]carbonyl}piperazin-1-yl)-1-[4-(1H-pyrrolo[2,3-b]pyridin-4-yl)-1H-pyrazol-1-yl]cyclobutyl}acetonitrile], for which the IC50 in experiment [1] was less than 10 nM; against JAK2 (a.a. 828-1132), 25 to 100 nM.

In the case of `CC(C)N(C)C(=O)N1CCN([C@H]2C[C@](CC#N)(n3cc(-c4ncnc5[nH]ccc45)cn3)C2)CC1` [Example 79, 4-{trans-3-(cyanomethyl)-3-[4-(7H-pyrrolo[2,3-d]pyrimidin-4-yl)-1H-pyrazol-1-yl]cyclobutyl}-N-isopropyl-N-methylpiperazine-1-carboxamide], the IC50 in experiment [1] was 25 to 100 nM; against JAK2 (a.a. 828-1132) it was greater than 100 nM.

In the case of `CCCN(C)C(=O)N1CCN([C@H]2C[C@](CC#N)(n3cc(-c4ncnc5[nH]ccc45)cn3)C2)CC1` [Example 80, 4-{trans-3-(cyanomethyl)-3-[4-(7H-pyrrolo[2,3-d]pyrimidin-4-yl)-1H-pyrazol-1-yl]cyclobutyl}-N-methyl-N-propylpiperazine-1-carboxamide], the values for the IC50 (in experiment [1]; against JAK2 (a.a. 828-1132)) were less than 10 nM and 25 to 100 nM, respectively.

`CCNC(=O)N1CCN([C@H]2C[C@](CC#N)(n3cc(-c4ncnc5[nH]ccc45)cn3)C2)CC1` [Example 81, 4-{trans-3-(cyanomethyl)-3-[4-(7H-pyrrolo[2,3-d]pyrimidin-4-yl)-1H-pyrazol-1-yl]cyclobutyl}-N-ethylpiperazine-1-carboxamide]: the values for the half-maximal inhibitory concentration (IC50) (in experiment [1]; at JAK2 (a.a. 828-1132)) were less than 10 nM and 25 to 100 nM, respectively.

For `CN(C)CCCN(C)C(=O)N1CCN([C@H]2C[C@](CC#N)(n3cc(-c4ncnc5[nH]ccc45)cn3)C2)CC1` [Example 82, 4-{trans-3-(cyanomethyl)-3-[4-(7H-pyrrolo[2,3-d]pyrimidin-4-yl)-1H-pyrazol-1-yl]cyclobutyl}-N-[3-(dimethylamino)propyl]-N-methylpiperazine-1-carboxamide], the IC50 in experiment [1] was 10 to 25 nM; on JAK2 (a.a. 828-1132), greater than 100 nM.

Regarding `CN(C(=O)N1CCN([C@H]2C[C@](CC#N)(n3cc(-c4ncnc5[nH]ccc45)cn3)C2)CC1)C1CC1` [Example 83, 4-{trans-3-(cyanomethyl)-3-[4-(7H-pyrrolo[2,3-d]pyrimidin-4-yl)-1H-pyrazol-1-yl]cyclobutyl}-N-cyclopropyl-N-methylpiperazine-1-carboxamide], the values for the concentration for half-maximal inhibition (IC50) (in experiment [1]; on JAK2 (a.a. 828-1132)) were less than 10 nM and 25 to 100 nM, respectively.

With `CN(CC(F)(F)F)C(=O)N1CCN([C@H]2C[C@](CC#N)(n3cc(-c4ncnc5[nH]ccc45)cn3)C2)CC1` [Example 84, 4-{trans-3-(cyanomethyl)-3-[4-(7H-pyrrolo[2,3-d]pyrimidin-4-yl)-1H-pyrazol-1-yl]cyclobutyl}-N-methyl-N-(2,2,2-trifluoroethyl)piperazine-1-carboxamide], the IC50 was 25 to 100 nM in experiment [1] and greater than 100 nM against JAK2 (a.a. 828-1132).

Consider `CC(C)NC(=O)N1CCN([C@H]2C[C@](CC#N)(n3cc(-c4ncnc5[nH]ccc45)cn3)C2)CC1` [Example 85, 4-{trans-3-(cyanomethyl)-3-[4-(7H-pyrrolo[2,3-d]pyrimidin-4-yl)-1H-pyrazol-1-yl]cyclobutyl}-N-isopropylpiperazine-1-carboxamide], for which the half-maximal inhibitory concentration (IC50) in experiment [1] is less than 10 nM; at JAK2 (a.a. 828-1132), 25 to 100 nM.

Regarding `N#CC[C@]1(n2cc(-c3ncnc4[nH]ccc34)cn2)C[C@H](N2CCN(C(=O)N[C@H]3CC[C@H](O)CC3)CC2)C1` [Example 86, 4-{trans-3-(cyanomethyl)-3-[4-(7H-pyrrolo[2,3-d]pyrimidin-4-yl)-1H-pyrazol-1-yl]cyclobutyl}-N-(trans-4-hydroxycyclohexyl)piperazine-1-carboxamide], the 50% inhibitory concentration (IC50) in experiment [1] was 10 to 25 nM; at JAK2 (a.a. 828-1132), 25 to 100 nM.

As for `N#CC[C@]1(n2cc(-c3ncnc4[nH]ccc34)cn2)C[C@H](N2CCN(C(=O)N[C@@H]3CCOC3)CC2)C1` [Example 87, 4-{trans-3-(cyanomethyl)-3-[4-(7H-pyrrolo[2,3-d]pyrimidin-4-yl)-1H-pyrazol-1-yl]cyclobutyl}-N-[(3R)-tetrahydrofuran-3-yl]piperazine-1-carboxamide], the IC50 in experiment [1] was 10 to 25 nM; against JAK2 (a.a. 828-1132), greater than 100 nM.

Turning to `N#CC[C@]1(n2cc(-c3ncnc4[nH]ccc34)cn2)C[C@H](N2CCN(C(=O)NC3CCCC3)CC2)C1` [Example 90, 4-{trans-3-(cyanomethyl)-3-[4-(7H-pyrrolo[2,3-d]pyrimidin-4-yl)-1H-pyrazol-1-yl]cyclobutyl}-N-cyclopentylpiperazine-1-carboxamide], the half-maximal inhibitory concentration (IC50) in experiment [1] is less than 10 nM; on JAK2 (a.a. 828-1132), 10 to 25 nM.

As to `N#CC[C@]1(n2cc(-c3ncnc4[nH]ccc34)cn2)C[C@H](N2CCN(C(=O)N3CC[C@H](O)C3)CC2)C1` [Example 91, {trans-3-(4-{[(3S)-3-hydroxypyrrolidin-1-yl]carbonyl}piperazin-1-yl)-1-[4-(7H-pyrrolo[2,3-d]pyrimidin-4-yl)-1H-pyrazol-1-yl]cyclobutyl}acetonitrile], the results for the IC50 (in experiment [1]; against JAK2 (a.a. 828-1132)) were 25 to 100 nM and greater than 100 nM, respectively.

As to `N#CC[C@]1(n2cc(-c3ncnc4[nH]ccc34)cn2)C[C@H](N2CCN(C(=O)NCC3CC3)CC2)C1` [Example 92, 4-{trans-3-(cyanomethyl)-3-[4-(7H-pyrrolo[2,3-d]pyrimidin-4-yl)-1H-pyrazol-1-yl]cyclobutyl}-N-(cyclopropylmethyl)piperazine-1-carboxamide trifluoroacetate salt], the half-maximal inhibitory concentration (IC50) in experiment [1] is less than 10 nM; on JAK2 (a.a. 828-1132), 25 to 100 nM.

For `CC(C)[C@@H](C)NC(=O)N1CCN([C@H]2C[C@](CC#N)(n3cc(-c4ncnc5[nH]ccc45)cn3)C2)CC1` [Example 93, 4-{trans-3-(cyanomethyl)-3-[4-(7H-pyrrolo[2,3-d]pyrimidin-4-yl)-1H-pyrazol-1-yl]cyclobutyl}-N-[(1R)-1,2-dimethylpropyl]piperazine-1-carboxamide], the figures for the IC50 (in experiment [1]; against JAK2 (a.a. 828-1132)) were less than 10 nM and 25 to 100 nM, respectively.

On to `CC(C)[C@H](C)NC(=O)N1CCN([C@H]2C[C@](CC#N)(n3cc(-c4ncnc5[nH]ccc45)cn3)C2)CC1` [Example 94, 4-{trans-3-(cyanomethyl)-3-[4-(7H-pyrrolo[2,3-d]pyrimidin-4-yl)-1H-pyrazol-1-yl]cyclobutyl}-N-[(1S)-1,2-dimethylpropyl]piperazine-1-carboxamide], for which the 50% inhibitory concentration (IC50) was less than 10 nM in experiment [1] and 25 to 100 nM against JAK2 (a.a. 828-1132).

For `N#CC[C@]1(n2cc(-c3ncnc4[nH]ccc34)cn2)C[C@H](N2CCN(C(N)=O)CC2)C1` [Example 95, 4-{trans-3-(cyanomethyl)-3-[4-(7H-pyrrolo[2,3-d]pyrimidin-4-yl)-1H-pyrazol-1-yl]cyclobutyl}piperazine-1-carboxamide], the concentration for half-maximal inhibition (IC50) in experiment [1] was less than 10 nM; on JAK2 (a.a. 828-1132) it was 25 to 100 nM.
